According to paper PMC9500407, “Quantifying the transport of biologics across intestinal barrier models in real-time by fluorescent imaging” (Frontiers in Bioengineering and Biotechnology, 2022):
Where two headings read alike, the source gives them in different places.

Legend:
[1] = cited from earlier work
Source text: page 15: Supplementary Table 4. Comparison of apparent permeability in chips using mono-and coculture tubules and Transwell system of 12 model drugs.

[2] = cited from earlier work; remark: listed apart in the source
Source text: page 17: Supplementary Table 5. Direct statistical comparison of drug transport in Transwells, mono-and coculture tubules of 12 model drugs using an unpaired t-test.

[3] = system: Caco-2 monolayers (Transwell); experiment: Lucifer Yellow leakage after drug exposure, Transwell; settings: 100 µM LY co-applied, after 2 h of exposure to 10 µM drug, Caco-2 Transwell
[4] = system: Caco-2:HT29-MTX E12 coculture tubules (chip); experiment: Lucifer Yellow leakage after drug exposure, chip coculture; settings: 100 µM LY co-applied, after 2 h of exposure to 10 µM drug
[5] = system: Caco-2 monoculture tubules (chip); experiment: Lucifer Yellow leakage after drug exposure, chip monoculture; settings: 100 µM LY co-applied, after 2 h of exposure to 10 µM drug
[6] = system: Caco-2 monolayers (Transwell); experiment: In vitro drug absorption study, Transwell Caco-2 monolayer, Papp by LC-MS; settings: Caco-2 Transwell, 19-21 days culture, apical pH 6.5 / basolateral pH 7.4 (TB, 10 mM HANKS/HBSS), 10 µM drug in 0.1% DMSO, 2 h, 37°C, static, mean ± SEM, at least three biological replicates
[7] = system: Caco-2:HT29-MTX E12 coculture tubules (chip); experiment: In vitro drug absorption study, OrganoPlate chip coculture tubules, Papp by LC-MS; settings: OrganoPlate Caco-2:HT29-MTX E12 6:1 coculture tubules, day 4, A-B, apical pH 6.5 / basolateral pH 7.4, 10 µM drug in 0.1% DMSO, 2 h, 37°C, constant flow, mean ± SEM, at least three biological replicates
[8] = system: Caco-2 monoculture tubules (chip); experiment: In vitro drug absorption study, OrganoPlate chip monoculture tubules, Papp by LC-MS; settings: OrganoPlate Caco-2 monoculture tubules, day 4, A-B, apical pH 6.5 / basolateral pH 7.4, 10 µM drug in 0.1% DMSO, 2 h, 37°C, constant flow, mean ± SEM, at least three biological replicates
[9] = system: Caco-2:HT29-MTX E12 coculture tubules; experiment: Image based analysis of SNAC induced semaglutide transport; type: in vitro ADME, human
Source text: semaglutide (purple) and FITC-dextran (green). Scale bar is 500 µm. Data represent the mean
of at least two biological replicates per condition.

[10] = human, ref Takenaka et al., 2016
[11] = known route of the drug, no reference given

Row | Compound | FA in human % (fraction absorbed in human) ([1]; in vivo) [%] | Transport route [2] | Lucifer Yellow leakage (%) Transwell [3] [%] | Lucifer Yellow leakage (%) Chip Caco-2:HT29-MTX E12 [4] [%] | Lucifer Yellow leakage (%) Chip Caco-2 [5] [%] | TW Caco-2 Papp (apparent permeability coefficient from A B) [6] | Chip Caco-2:HT29-MTX E12 Papp (apparent permeability coefficient from A B) [7] | Chip Caco-2 Papp (apparent permeability coefficient from A B) [8] | FA in human % (fraction absorbed in human) [1, 10] [%] | Transport route [2, 11] | Effect on cell layer (micrographs) ([9]; 40 mM SNAC) | Effect on cell layer ([9]; SNAC 20 mM or 40 mM with semaglutide-Cy3 5 µM, approx. 4 h, bright field and dextran) | FA in human % (fraction absorbed in human) ([1]; human, ref Youhanna and Lauschke, 2021) [%] | Chip Caco-2:HT29-MTX E12 Papp (apparent permeability coefficient from A B) ([7]; listed as Erythromycin) [cm/s]
1 | CC(C)(C)NCC(O)c1cc(O)cc(O)c1 (centres unmarked) [Terbutaline] | 44 | Paracellular | 0.02 | 0.01 | 0.02 | 1.85± 0.10 × 10-6 cm/sec | 5.09 ± 0.06 × 10-6 cm/sec | 7.11± 0.43 × 10-6 cm/sec |  |  |  |  |  | 
2 | CNC(=C[N+](=O)[O-])NCCSCc1ccc(CN(C)C)o1 [Rantidine] |  |  | 0.02 | 0.01 | 0.02 | 3.22± 0.93 × 10^-6 cm/sec | 2.29 ± 0.27 × 10^-6 cm/sec | 1.80± 0.27 × 10^-6 cm/sec | 50 | Paracellular |  |  |  | 
3 | COCCc1ccc(OCC(O)CNC(C)C)cc1 (centres unmarked) [Metoprolol] |  |  | 0.02 | 0.09 | 0.02 | 47.63± 5.44 × 10-6 cm/sec | 44.99 ± 1.05 × 10-6 cm/sec | 17.67± 4.98 × 10-6 cm/sec |  |  |  |  |  | 
4 | CN/C(=N/CCSCc1nc[nH]c1C)NC#N [Cimetidine] |  | Paracellular | 0.03 | 0.02 | 0.03 | 5.08± 1.39 × 10^-6 cm/sec | 11.87 ± 3.41 × 10^-6 cm/sec | 9.79± 3.41 × 10^-6 cm/sec | 62 |  |  |  |  | 
5 | O=C([O-])CCCCCCCNC(=O)c1ccccc1O.[Na+] [SNAC, salcaprozate sodium] |  |  |  |  |  |  |  |  |  |  | partial removal of cell layer | irreversible damage to the cell layer |  | 
6 | CC(C)NCC(O)COc1cccc2ccccc12 (centres unmarked) [Propranolol] |  |  | 0.02 | 0.03 | 0.03 | 101.68± 23.00 × 10-6 cm/sec | 86.05 ± 21.67 × 10-6 cm/sec | 71.42± 5.08 × 10-6 cm/sec |  |  |  |  |  | 
7 | CC(=O)CC(c1ccccc1)c1c(O)c2ccccc2oc1=O (centres unmarked) [Warfarin] |  |  | 0.02 |  |  | 0.00024341 cm/s | 0.00030039 cm/s | 160.97± 40.49 × 10-6 cm/sec |  |  |  |  |  | 
8 | C=C[C@H]1C[N@@]2CC[C@H]1C[C@@H]2[C@@H](O)c1ccnc2ccc(OC)cc12 [Quinidine] |  |  |  |  |  |  |  |  |  | Transcellular |  |  |  | 
9 | NC(=O)N1c2ccccc2C=Cc2ccccc21 [Carbamazepine] | 100 | Transcellular | 0.02 | 0.01 | 0.02 | 204.43± 9.20 × 10-6 cm/sec | 140.04 ± 6.25 × 10-6 cm/sec | 0.00021399 cm/s |  |  |  |  |  | 
10 | CC[C@H]1OC(=O)[C@H](C)[C@@H](O[C@H]2C[C@@](C)(OC)[C@@H](O)[C@H](C)O2)[C@H](C)[C@@H](O[C@@H]2O[C@H](C)C[C@H](N(C)C)[C@H]2O)[C@](C)(O)C[C@@H](C)C(=O)[C@H](C)[C@@H](O)[C@]1(C)O [Erythromicin] |  |  | 0.03 | 0.01 | 0.04 | 1.2e-06 cm/s | 0.99 ± 0.32 × 10^-6 cm/sec | 1.33e-06 cm/s |  |  |  |  | 35 | 9.9e-07
11 | CN(C)C(=O)C(CCN1CCC(O)(c2ccc(Cl)cc2)CC1)(c1ccccc1)c1ccccc1 [Loperamide] |  |  | 0.02 | 0.02 | 0.68 | 58.60± 8.62 × 10^-6 cm/sec | 2.75 ± 1.13 × 10^-6 cm/sec | 11.03± 1.62 × 10^-6 cm/sec |  |  |  |  |  | 
